Source: BindingDB's records for doi:10.1016/j.ejmech.2016.06.019 (Federal University of Minas Gerais, 2016)

Test: Activation of NQO1 in human A549 cells assessed as decrease in cell survival incubated for 2 hrs measured after 7 days in presence of NQO1 inhibitor dicoumarol by Hoechst 33258 staining based assay

Which IC50 does the source give for `CC1(C)OC2=C(C(=O)C(=O)c3ccccc32)C1Nc1cccc([N+](=O)[O-])c1` (centres undefined) here?
Its IC50 is over 3.2 µM.

Which IC50 does the source give for `CC1(C)OC2=C(C(=O)C(=O)c3ccccc32)C1Nc1cccc(-c2cn(C[Se]c3ccccc3)nn2)c1` (centres undefined) here?
The IC50 was over 3.2 µM.

With `CC1(C)OC2=C(C(=O)C(=O)c3ccccc32)C1Nc1ccc([N+](=O)[O-])cc1` (centres undefined) as the compound, how does the IC50 read?
The IC50 was over 3.2 µM.

For `CC1(C)OC2=C(C(=O)C(=O)c3ccccc32)C1Nc1ccc(F)c([N+](=O)[O-])c1` (centres undefined), which IC50 is on record?
The IC50 was over 3.2 µM.
